Data on 13 compounds can be found in ChEMBL document CHEMBL3991601, “The target landscape of clinical kinase drugs” (Science, 2017).

A word on the Kd: it is the equilibrium constant for the complex coming apart.

Experiment [1] has as its target Cyclin-dependent kinase 13 (Homo sapiens, UniProt Q14004).
Experiment [2] deals with Casein kinase II subunit alpha' (Homo sapiens, UniProt P19784).
Experiment [3] addresses T1, Ephrin type-B receptor 2 (Homo sapiens, UniProt P29323).
T1 sequence (P29323 whole entry): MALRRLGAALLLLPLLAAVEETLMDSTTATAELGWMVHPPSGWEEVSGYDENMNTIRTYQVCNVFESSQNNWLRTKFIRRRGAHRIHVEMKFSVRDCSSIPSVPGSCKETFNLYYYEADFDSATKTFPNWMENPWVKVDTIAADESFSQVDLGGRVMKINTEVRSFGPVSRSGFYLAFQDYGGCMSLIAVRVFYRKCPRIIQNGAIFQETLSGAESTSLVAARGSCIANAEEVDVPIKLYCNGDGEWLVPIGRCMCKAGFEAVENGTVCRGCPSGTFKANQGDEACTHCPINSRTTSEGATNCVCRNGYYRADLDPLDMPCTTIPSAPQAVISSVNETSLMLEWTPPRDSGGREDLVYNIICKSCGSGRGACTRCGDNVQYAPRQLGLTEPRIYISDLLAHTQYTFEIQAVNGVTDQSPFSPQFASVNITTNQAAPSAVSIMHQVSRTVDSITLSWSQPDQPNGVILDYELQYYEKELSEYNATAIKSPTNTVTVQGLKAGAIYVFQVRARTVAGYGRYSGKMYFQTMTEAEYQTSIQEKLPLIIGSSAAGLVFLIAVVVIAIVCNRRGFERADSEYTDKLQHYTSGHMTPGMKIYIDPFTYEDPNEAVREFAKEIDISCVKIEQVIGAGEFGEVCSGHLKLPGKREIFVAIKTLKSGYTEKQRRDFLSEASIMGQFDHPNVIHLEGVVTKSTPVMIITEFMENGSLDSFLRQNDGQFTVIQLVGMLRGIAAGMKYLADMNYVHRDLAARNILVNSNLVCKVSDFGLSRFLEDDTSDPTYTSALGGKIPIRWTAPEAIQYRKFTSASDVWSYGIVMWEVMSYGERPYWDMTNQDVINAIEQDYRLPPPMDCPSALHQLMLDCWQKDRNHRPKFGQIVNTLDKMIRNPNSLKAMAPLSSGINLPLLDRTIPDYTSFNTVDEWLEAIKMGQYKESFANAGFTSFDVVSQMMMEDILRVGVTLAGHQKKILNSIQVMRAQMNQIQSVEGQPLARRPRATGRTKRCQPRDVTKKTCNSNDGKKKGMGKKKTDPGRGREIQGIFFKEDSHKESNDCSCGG

In experiment [4] the target is T2, Heme oxygenase 2 (Homo sapiens, UniProt P30519).
T2 sequence (P30519 whole entry): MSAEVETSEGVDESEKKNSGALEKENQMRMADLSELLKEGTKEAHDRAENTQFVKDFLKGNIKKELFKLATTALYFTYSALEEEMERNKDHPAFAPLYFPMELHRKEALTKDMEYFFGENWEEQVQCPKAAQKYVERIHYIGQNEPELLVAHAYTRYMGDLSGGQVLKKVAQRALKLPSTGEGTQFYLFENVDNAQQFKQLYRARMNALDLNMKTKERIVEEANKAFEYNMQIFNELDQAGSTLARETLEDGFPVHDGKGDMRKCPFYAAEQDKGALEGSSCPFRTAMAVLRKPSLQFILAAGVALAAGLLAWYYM

Experiment [5] concerns the target cAMP-dependent protein kinase type II-alpha regulatory subunit (Homo sapiens, UniProt P13861).
Experiment [6] addresses T3, Exosome RNA helicase MTR4 (Homo sapiens, UniProt P42285).
T3 sequence (P42285 whole entry): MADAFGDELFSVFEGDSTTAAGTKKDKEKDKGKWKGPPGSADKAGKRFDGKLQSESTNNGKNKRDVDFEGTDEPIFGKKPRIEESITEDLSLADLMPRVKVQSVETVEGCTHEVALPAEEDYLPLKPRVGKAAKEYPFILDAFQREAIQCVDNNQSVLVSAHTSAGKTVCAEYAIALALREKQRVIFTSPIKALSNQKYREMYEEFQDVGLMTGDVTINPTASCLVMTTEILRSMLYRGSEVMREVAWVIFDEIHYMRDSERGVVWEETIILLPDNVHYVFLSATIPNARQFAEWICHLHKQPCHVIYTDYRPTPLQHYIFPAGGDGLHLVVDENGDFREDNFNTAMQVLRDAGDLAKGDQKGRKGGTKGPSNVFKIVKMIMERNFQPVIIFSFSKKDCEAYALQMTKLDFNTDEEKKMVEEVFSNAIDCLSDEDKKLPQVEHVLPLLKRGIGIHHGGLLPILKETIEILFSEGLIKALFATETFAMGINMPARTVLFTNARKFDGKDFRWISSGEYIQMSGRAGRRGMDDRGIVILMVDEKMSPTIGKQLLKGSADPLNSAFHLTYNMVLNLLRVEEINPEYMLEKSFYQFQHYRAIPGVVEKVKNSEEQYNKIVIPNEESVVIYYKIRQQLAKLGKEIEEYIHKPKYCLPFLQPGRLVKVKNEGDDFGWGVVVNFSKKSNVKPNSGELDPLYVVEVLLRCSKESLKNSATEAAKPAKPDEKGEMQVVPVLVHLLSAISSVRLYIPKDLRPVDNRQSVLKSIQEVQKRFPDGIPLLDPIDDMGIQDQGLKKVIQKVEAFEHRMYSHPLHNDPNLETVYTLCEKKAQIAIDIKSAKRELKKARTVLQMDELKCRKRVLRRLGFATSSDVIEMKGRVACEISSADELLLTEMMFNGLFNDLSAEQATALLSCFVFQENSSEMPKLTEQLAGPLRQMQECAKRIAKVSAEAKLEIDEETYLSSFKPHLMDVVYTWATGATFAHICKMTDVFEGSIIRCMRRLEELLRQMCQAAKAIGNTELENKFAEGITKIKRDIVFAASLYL

Experiment [7] has as its target TGF-beta receptor type-2 (Homo sapiens, UniProt P37173).
Experiment [8] has as its target Mitogen-activated protein kinase kinase kinase 20 (Homo sapiens, UniProt Q9NYL2).

Activity calls are given as the source filed them. For most assays here, no stated cut-off is given here; in the data, actives have a measured Kd and inactives only a lower limit. Bounds are passed on as bounds.

TGF-beta receptor type-2, sequence (P37173 whole entry): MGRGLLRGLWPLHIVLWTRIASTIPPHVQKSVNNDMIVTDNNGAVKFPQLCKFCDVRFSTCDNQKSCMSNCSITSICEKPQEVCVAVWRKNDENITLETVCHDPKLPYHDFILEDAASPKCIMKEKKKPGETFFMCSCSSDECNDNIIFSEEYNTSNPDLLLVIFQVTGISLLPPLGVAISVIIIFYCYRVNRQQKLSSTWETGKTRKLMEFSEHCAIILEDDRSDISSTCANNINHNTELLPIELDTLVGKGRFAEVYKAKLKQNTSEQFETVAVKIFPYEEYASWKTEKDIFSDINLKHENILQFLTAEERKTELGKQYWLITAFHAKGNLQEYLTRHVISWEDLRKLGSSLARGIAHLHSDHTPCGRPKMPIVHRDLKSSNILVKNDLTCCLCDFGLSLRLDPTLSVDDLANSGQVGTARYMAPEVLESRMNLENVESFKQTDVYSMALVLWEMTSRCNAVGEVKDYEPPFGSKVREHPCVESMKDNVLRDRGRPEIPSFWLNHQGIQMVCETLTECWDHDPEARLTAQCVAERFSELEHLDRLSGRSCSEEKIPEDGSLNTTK
Cyclin-dependent kinase 13, sequence (Q14004 whole entry): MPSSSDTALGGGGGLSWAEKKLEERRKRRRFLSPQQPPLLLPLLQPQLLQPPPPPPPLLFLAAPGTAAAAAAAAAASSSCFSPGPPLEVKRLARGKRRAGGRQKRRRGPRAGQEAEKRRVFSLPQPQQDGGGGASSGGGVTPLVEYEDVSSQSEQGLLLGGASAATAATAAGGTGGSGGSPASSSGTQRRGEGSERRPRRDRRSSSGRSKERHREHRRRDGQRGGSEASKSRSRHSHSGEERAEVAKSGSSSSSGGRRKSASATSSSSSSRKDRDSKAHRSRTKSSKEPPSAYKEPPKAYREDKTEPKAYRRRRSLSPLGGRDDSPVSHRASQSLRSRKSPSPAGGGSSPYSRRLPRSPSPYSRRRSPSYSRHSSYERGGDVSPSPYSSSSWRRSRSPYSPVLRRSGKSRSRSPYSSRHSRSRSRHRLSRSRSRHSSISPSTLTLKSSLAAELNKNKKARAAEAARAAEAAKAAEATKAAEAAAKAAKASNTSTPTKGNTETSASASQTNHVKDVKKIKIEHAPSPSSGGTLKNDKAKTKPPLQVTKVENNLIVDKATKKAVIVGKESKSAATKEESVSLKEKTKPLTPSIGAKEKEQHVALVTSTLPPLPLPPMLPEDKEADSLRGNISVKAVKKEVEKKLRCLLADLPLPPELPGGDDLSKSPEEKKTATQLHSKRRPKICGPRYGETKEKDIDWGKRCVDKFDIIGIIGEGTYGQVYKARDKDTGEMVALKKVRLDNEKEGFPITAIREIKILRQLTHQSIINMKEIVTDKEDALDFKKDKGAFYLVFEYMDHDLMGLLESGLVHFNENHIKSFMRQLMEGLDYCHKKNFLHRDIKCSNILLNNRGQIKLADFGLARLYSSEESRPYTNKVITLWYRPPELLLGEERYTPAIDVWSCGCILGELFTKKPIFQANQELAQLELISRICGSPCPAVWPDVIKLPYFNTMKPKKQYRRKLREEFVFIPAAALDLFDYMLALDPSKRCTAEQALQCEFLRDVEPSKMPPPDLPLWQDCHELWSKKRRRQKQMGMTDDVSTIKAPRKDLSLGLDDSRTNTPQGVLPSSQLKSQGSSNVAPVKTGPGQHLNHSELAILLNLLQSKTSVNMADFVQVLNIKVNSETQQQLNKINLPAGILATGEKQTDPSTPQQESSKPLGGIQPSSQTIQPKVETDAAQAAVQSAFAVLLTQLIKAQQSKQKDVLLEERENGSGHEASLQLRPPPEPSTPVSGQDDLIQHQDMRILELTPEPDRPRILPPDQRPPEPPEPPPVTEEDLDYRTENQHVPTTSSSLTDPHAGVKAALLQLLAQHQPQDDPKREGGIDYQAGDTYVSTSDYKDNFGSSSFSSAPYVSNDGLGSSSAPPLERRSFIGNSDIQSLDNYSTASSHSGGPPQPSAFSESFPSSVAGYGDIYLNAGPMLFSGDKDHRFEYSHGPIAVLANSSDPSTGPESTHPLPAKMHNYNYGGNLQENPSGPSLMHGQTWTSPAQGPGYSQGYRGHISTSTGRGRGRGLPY
Mitogen-activated protein kinase kinase kinase 20, sequence (Q9NYL2 whole entry): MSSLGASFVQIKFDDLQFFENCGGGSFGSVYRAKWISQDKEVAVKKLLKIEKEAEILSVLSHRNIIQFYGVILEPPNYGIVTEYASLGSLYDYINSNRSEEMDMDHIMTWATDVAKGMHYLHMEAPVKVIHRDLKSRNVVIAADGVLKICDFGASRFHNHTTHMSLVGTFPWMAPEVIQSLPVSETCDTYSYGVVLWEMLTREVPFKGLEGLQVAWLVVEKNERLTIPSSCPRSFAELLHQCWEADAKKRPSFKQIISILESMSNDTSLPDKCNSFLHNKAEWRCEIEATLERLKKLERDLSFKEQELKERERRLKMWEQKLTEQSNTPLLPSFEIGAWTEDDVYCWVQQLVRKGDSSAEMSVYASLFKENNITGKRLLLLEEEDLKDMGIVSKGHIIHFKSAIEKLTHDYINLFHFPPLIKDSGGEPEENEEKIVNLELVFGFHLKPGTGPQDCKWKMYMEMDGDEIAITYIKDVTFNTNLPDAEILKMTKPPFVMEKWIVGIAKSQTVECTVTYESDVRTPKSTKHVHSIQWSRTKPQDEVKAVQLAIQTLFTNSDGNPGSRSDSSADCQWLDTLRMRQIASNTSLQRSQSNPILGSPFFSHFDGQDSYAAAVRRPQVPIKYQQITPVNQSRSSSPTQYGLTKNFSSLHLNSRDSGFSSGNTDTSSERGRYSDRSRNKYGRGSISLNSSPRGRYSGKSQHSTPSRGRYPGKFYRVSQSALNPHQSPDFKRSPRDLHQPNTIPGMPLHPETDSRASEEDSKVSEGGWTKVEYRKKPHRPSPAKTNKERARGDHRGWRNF
Casein kinase II subunit alpha', sequence (P19784 whole entry): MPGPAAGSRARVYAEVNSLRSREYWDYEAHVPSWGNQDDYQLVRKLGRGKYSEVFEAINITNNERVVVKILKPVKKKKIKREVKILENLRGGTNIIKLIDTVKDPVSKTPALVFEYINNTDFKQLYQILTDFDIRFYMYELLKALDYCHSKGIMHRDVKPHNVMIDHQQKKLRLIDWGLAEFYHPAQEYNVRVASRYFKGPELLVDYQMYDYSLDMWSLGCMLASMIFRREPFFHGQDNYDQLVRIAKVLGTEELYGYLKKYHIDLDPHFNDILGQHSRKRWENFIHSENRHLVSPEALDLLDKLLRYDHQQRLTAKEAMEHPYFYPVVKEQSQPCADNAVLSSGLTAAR
cAMP-dependent protein kinase type II-alpha regulatory subunit, sequence (P13861 whole entry): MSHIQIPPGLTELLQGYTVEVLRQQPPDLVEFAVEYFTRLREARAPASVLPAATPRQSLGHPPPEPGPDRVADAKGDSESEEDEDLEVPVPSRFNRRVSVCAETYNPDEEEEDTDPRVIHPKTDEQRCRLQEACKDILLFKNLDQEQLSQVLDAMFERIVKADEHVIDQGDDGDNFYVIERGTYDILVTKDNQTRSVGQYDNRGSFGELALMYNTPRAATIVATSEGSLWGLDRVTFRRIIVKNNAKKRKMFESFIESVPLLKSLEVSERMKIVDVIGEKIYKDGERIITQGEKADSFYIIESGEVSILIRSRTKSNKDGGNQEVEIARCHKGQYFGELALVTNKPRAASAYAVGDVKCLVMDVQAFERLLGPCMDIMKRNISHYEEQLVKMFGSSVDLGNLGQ

Consider `CNC(=O)c1nn(C)c2c1C(C)(C)Cc1cnc(Nc3ccc(N4CCN(C)CC4)cc3)nc1-2` [MILCICLIB], for which the Kd in experiment [1] was > 30 µM (inactive); in experiment [2] it was 3.5 µM (active); in experiment [3], 0.767 µM (active); in experiment [4], > 30 µM (inactive); in experiment [5], > 30 µM (inactive); in experiment [6] it was > 30 µM (inactive). Further, the Kd in experiment [7] and in experiment [8] was > 30 µM (inactive) in each case.
As to `CN(C[C@@H]1COCCO1)S(=O)(=O)Nc1ccc2ccc3ncc(-c4cnn(C)c4)cc3c(=O)c2c1` [MK-2461], the Kd in experiment [1], in experiment [2], in experiment [3], in experiment [4], in experiment [5] and in experiment [6] was > 30 µM (inactive) throughout. In addition, the Kd in experiment [7] and in experiment [8] was > 30 µM (inactive) in each case.
With `Cn1cc(-c2cnc3ccc4ccc(CS(=O)(=O)NCc5ccccn5)cc4c(=O)c3c2)cn1` [MK-8033], the Kd in experiment [1], in experiment [2], in experiment [3], in experiment [4], in experiment [5] and in experiment [6] was > 30 µM (inactive) in each case. The Kd in experiment [7] and in experiment [8] was > 30 µM (inactive) each time.
Turning to `FC(F)(F)c1ccc(/C=C/c2nc(COc3ccc(CCCCn4ccnn4)cc3)co2)cc1` [MUBRITINIB], the Kd in experiment [1], in experiment [2], in experiment [3], in experiment [4], in experiment [5] and in experiment [6] was > 30 µM (inactive) each time. Also, the Kd in experiment [7] and in experiment [8] was > 30 µM (inactive) in each case.
In the case of `COc1ncc(-c2ccc3nccc(-c4ccnnc4)c3c2)cc1NS(=O)(=O)c1ccc(F)cc1F` [OMIPALISIB], the Kd in experiment [1], in experiment [2], in experiment [3], in experiment [4], in experiment [5] and in experiment [6] was > 30 µM (inactive) each time. For the same compound, the Kd in experiment [7] and in experiment [8] was > 30 µM (inactive) each time.
With `CCOc1cc2ncc(C#N)c(Nc3ccc(F)c(Cl)c3)c2cc1NC(=O)/C=C/CN(C)C` [PELITINIB], the Kd in experiment [1], in experiment [2], in experiment [3], in experiment [4], in experiment [5] and in experiment [6] was > 30 µM (inactive) in each case. For the same compound, the Kd in experiment [7] is > 30 µM (inactive); in experiment [8] it was 0.875 µM (active).
With `Cc1nc(Nc2n[nH]c3c2CN(C(=O)N[C@H](CN(C)C)c2ccccc2)C3(C)C)c2sccc2n1` [PF-03758309], the Kd in experiment [1], in experiment [2], in experiment [3], in experiment [4], in experiment [5] and in experiment [6] was > 30 µM (inactive) in each case. The Kd in experiment [7] and in experiment [8] was > 30 µM (inactive) throughout.
Consider `Cc1cnc(NC(=O)Nc2cc(Br)c(C)cc2OC[C@@H]2CNCCO2)cn1` [RABUSERTIB], for which the Kd in experiment [1], in experiment [2], in experiment [3], in experiment [4], in experiment [5] and in experiment [6] was > 30 µM (inactive) throughout. In addition, the Kd in experiment [7] and in experiment [8] was > 30 µM (inactive) throughout.
With `CNC(=O)c1cc(Oc2ccc(NC(=O)Nc3cc(C(C)(C)C)nn3-c3ccc4ncccc4c3)c(F)c2)ccn1` [REBASTINIB], the Kd in experiment [1], in experiment [2], in experiment [3], in experiment [4], in experiment [5] and in experiment [6] was > 30 µM (inactive) throughout. Also, the Kd in experiment [7] was > 30 µM (inactive); in experiment [8], 0.388 µM (active).
On to `CO[C@H]1C[C@@H]2CC[C@@H](C)[C@@](O)(O2)C(=O)C(=O)N2CCCC[C@H]2C(=O)O[C@H]([C@H](C)C[C@@H]2CC[C@@H](OP(C)(C)=O)[C@H](OC)C2)CC(=O)[C@H](C)/C=C(\C)[C@@H](O)[C@@H](OC)C(=O)[C@H](C)C[C@H](C)/C=C/C=C/C=C/1C` [RIDAFOROLIMUS], for which the Kd in experiment [1], in experiment [2], in experiment [3], in experiment [4], in experiment [5] and in experiment [6] was > 30 µM (inactive) in each case. In addition, the Kd in experiment [7] and in experiment [8] was > 30 µM (inactive) in each case.
Regarding `N#CC1(c2ccc(NC(=O)c3cccnc3NCc3ccncc3)cc2)CCCC1` [RIVOCERANIB], the Kd in experiment [1], in experiment [2], in experiment [3], in experiment [4], in experiment [5] and in experiment [6] was > 30 µM (inactive) each time. In addition, the Kd in experiment [7] was > 30 µM (inactive); in experiment [8] it was 4.76 µM (active).
As for `O=c1[nH]ccc2cc(OC3CCNCC3)ccc12` [SAR-407899 FREE BASE], the Kd in experiment [1], in experiment [2], in experiment [3], in experiment [4], in experiment [5] and in experiment [6] was > 30 µM (inactive) throughout. Further, the Kd in experiment [7] and in experiment [8] was > 30 µM (inactive) throughout.
For `CN1CCN(CCOc2cc(OC3CCOCC3)c3c(Nc4c(Cl)ccc5c4OCO5)ncnc3c2)CC1` [SARACATINIB], the Kd was > 30 µM (inactive) in experiment [1]; > 30 µM (inactive) in experiment [2]; 9.42 µM (active) in experiment [3]; > 30 µM (inactive) in experiment [4]; > 30 µM (inactive) in experiment [5]; > 30 µM (inactive) in experiment [6]. Also, the Kd was > 30 µM (inactive) in experiment [7] and 2.98 µM (active) in experiment [8].
